Data on eight molecules can be found in paper PMC4864240, “Biotype Characterization, Developmental Profiling, Insecticide Response and Binding Property of Bemisia tabaci Chemosensory Proteins: Role of CSP in Insect Defense” (PLoS ONE, 2016).

Read-outs that look alike come from different tables or passages of the source.

For data set [1], the system named is B. tabaci B-biotype adults. Put plainly: Thiamethoxam cotton leaf-dip exposure, gene expression by qRT-PCR, biotype B. In kind it is in vivo, Bemisia tabaci. The method, then: (§1) One-step Reverse transcriptase PCR (TAKARA Bio. Inc) was used to check for tissue-distribution of CSP1 following the method described in Liu et al.. qRT-PCR was used to measure the changes of CSP1, CSP2 and CSP3 gene expression during development and over insecticide exposure. In a typical qRT-PCR experiment, cDNA templates (20 ng/μl) were used in a total volume of 20 μl containing SYBR Green I PCR Master Mix (Roche) and 200 nM of each primer, using 96-well optical-grade PCR plates and matched optical-grade membrane of StepOne Plus ABI system. qPCR primers were specifically designed to generate an amplicon of about 100–150 bps:
(§2) qRT-PCR products were sequenced to attest primer specificity. Each sample in B and Q was analyzed in triplicates. Three biological samples were used for each time point at each developmental stage and in the experiments on the effects of insecticide on the expression of CSP genes (see below). Reactions were run in a StepOne Plus system with initial denaturing step consisting of 2 min at 50°C and 10 min at 95°C, followed by 40 cycles of 15 s at 95°C-30 s at 60°C and terminated by a dissociation curve program from 60 to 95°C with a heating rate of 0.1°C and a continuous fluorescence acquisition. Expression levels were determined using the relative 2(-Delta Delta C(T)) method. Data were statistically analyzed by one-way Anova in SPSS.
(§3) Thiamethoxam is one major neonicotinoid insecticide, known to act on the nicotinic acetylcholine receptors (nAChR) within the insect central nervous system. To expose B. tabaci to the neonicotinoid insecticide thiamethoxam (25% WG, Syngenta, China), we chose the cotton leaf-dip method. One week<-old adult forms from the laboratory colonies of B- and Q-biotypes of B. tabaci were collected separately and exposed in the laboratory conditions (26°C temperature, 60% humidity, 16/8 h day/night) to 0, 6.25, 12.5, 25 and 50 μg/ml of thiamethoxam, respectively. Significant mortality rate was observed only for higher doses […] at different exposure time.
(§4) The experiment started (time 0) when insecticide treated and non-treated plant discs (2.5 cm diameter) were individually placed on agar base in 20-ml glass vials.Twenty-eight whiteflies belonging either to B or Q-biotype were aspirated into each vial. Vials were capped with an absorbent cotton stopper and inverted. Insecticide-treated whiteflies fed in treated vials on cotton plant leaf discs dipped for 10 s in formulated thiamethoxam diluted with distilled water. Whiteflies kept in vials containing cotton plant leaf discs of the same diameter dipped for 10 s in distilled water only were used as controls (0 μg/ml of thiamethoxam). […]

Data set [2] has as its system B- and Q-biotypes of B. tabaci. Briefly: Thiamethoxam cotton leaf-dip exposure, mortality. In kind it is in vivo, Bemisia tabaci. The procedure:
as §3, §4

In data set [3] the test system is B. tabaci Q-biotype adults. Put plainly: Thiamethoxam cotton leaf-dip exposure, gene expression by qRT-PCR, biotype Q. Type of data set: in vivo, Bemisia tabaci. The method, then: as §1, §2, §3
The experiment started (time 0) when insecticide treated and non-treated plant discs (2.5 cm diameter) were individually placed on agar base in 20-ml glass vials.Twenty-eight whiteflies belonging either to B or Q-biotype were aspirated into each vial. Vials were capped with an absorbent cotton stopper and inverted. Insecticide-treated whiteflies fed in treated vials on cotton plant leaf discs dipped for 10 s in formulated thiamethoxam diluted with distilled water. Whiteflies kept in vials containing cotton plant leaf discs of the same diameter dipped for 10 s in distilled water only were used as controls (0 μg/ml of thiamethoxam). After 1, 4, 24, 48 and 72 h post-exposure, all individuals in each category were collected in an eppendorf tube in treated and untreated groups of whiteflies in each of the two biotypes, kept on ice for 10 min and freeze-dried in nitrogen before storage at -70°C.

Another data set concerns the target T1, BtabCSP1 (Bemisia tabaci, UniProt D6N3A3).
T1 sequence (D6N3A3 20-126): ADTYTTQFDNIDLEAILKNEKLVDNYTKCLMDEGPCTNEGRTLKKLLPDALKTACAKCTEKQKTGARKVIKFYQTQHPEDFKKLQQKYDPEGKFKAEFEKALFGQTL
Put plainly: biochemical. Type of data set: binding. The method, then:
(§5) Protein-ligand binding affinity was determined for the three recombinant proteins. Emission fluorescence spectra were recorded on a Jasco FP-6500 Series fluorescence spectrofluorometer. […] Fluorescence was measured using an exciting wavelength of 337 nm. Emission spectrum was recorded between 350 and 500 nm.

The next data set addresses T2, BtabCSP3 (Bemisia tabaci, UniProt A0A097GUB5).
T2 sequence (A0A097GUB5 21-138): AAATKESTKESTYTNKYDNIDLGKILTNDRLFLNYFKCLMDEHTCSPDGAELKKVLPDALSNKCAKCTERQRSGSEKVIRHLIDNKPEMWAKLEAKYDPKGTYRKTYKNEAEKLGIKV
Briefly: biochemical. In kind it is binding. The method, then:
as §5

The target of the next data set is T3, BtabCSP2 (Bemisia tabaci, UniProt H6UKS9).
T3 sequence (H6UKS9 22-131): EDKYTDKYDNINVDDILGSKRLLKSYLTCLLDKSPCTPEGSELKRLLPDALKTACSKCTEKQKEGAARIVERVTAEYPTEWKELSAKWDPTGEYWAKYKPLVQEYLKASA
Put plainly: biochemical. In kind it is binding. The method, then: as §5

Setting [4] is: competitive binding vs 1-NPN, three replicates ± SD, read-out: BtabCSP1 Ki.
Where [5] appears, read: u.d. = binding constant not calculated, IC50>100 μM, read-out: BtabCSP1 Ki (u.d.).
Setting [6] is: u.d. = binding constant not calculated, IC50>100 μM, read-out: BtabCSP3 Ki (u.d.).
The mark [7] stands for this setting: u.d. = binding constant not calculated, IC50>100 μM, read-out: BtabCSP2 Ki (u.d.).
[8] abbreviates: displacement of 1-NPN, read-out: IC50, BtabCSP1.

`CN1COCN(Cc2cnc(Cl)s2)/C1=N\[N+](=O)[O-]` [Thiamethoxam]: the “CSP1 expression, time/dose effect” value in data set [1] (1-72 h, 0-50 μg/ml) is reported as “did not observe such a time/dose effect”. Besides, the “CSP2 and CSP3 expression” value is recorded as “no time/dose effect” in data set [1] (1-72 h, 0-50 μg/ml) and “no time/dose effect” in data set [3] (1-72 h, 0-50 μg/ml). The CSP1 gene expression result in data set [1] (1 and 4 h, all five doses) is given as “no changes”; in data set [3] (1 and 4 h, all five doses), “no changes”; in data set [3] (24 h, gradual concentrations) it was “gradual increase”; in data set [3] (48 h), “No effects”. Also, the CYP6CX1 expression entry in data set [1] (sublethal dose) is reported as “reduced”. The mortality result in data set [2] (100 μg/ml, 72 h exposure) is “killed most of the whiteflies”. Also, the “doses with significant mortality rate” value in data set [2] (different exposure time) was above 100 µg/mL. Besides, the “increase in CSP1 gene expression (factor)” value in data set [3] (72 h exposure, 12.5 and 50 μg/ml) is given as 10–25. Further, the CYP6CM1 expression entry in data set [3] (sublethal dose) is “increased”. Moreover, in data set [3] (sublethal doses, 24 and 72 h), the CSP1 expression up-regulated was 10–20 fold. In addition, at BtabCSP1, the concentration for half-maximal inhibition (IC50) was above 50 µM.
For the molecule `CCCCCC(C=O)=Cc1ccccc1` [α-Pentyl-cinnamaldehyde], the Ki is 12.6 ± 1.3 µM at BtabCSP1 (setting [4]); 5.8 µM at BtabCSP3 (competitive binding vs 1-NPN, three replicates ± SD, listed as α-pentyl-cinnamaldehyde, read-out: BtabCSP3 Ki); 5.82 ± 0.31 µM at BtabCSP3 (competitive binding vs 1-NPN, three replicates ± SD, read-out: BtabCSP3 Ki); 10.3 µM on BtabCSP2 (competitive binding vs 1-NPN, three replicates ± SD, listed as α-pentyl-cinnamaldehyde, read-out: BtabCSP2 Ki); 10.3 ± 1.17 µM on BtabCSP2 (competitive binding vs 1-NPN, three replicates ± SD, read-out: BtabCSP2 Ki). Moreover, the IC50 at BtabCSP3 (displacement of 1-NPN) worked out at 6.5 µM; at BtabCSP2 (displacement of 1-NPN), 11.1 µM.
Take `CC1=CCC2CC1C2(C)C` (stereo not drawn) [α-Pinene]: the Ki at BtabCSP1 (setting [5]), at BtabCSP3 (setting [6]) and at BtabCSP2 (setting [7]) was above 100 µM each time.
In the case of `CC1=CC=C(C(C)C)CC1` [α-Terpinene], at BtabCSP1 (setting [8]), the IC50 lay within 14.6 to 95.1 µM. In addition, the Ki at BtabCSP1 (setting [5]), at BtabCSP3 (setting [6]) and at BtabCSP2 (setting [7]) was above 100 µM in each case.
In the case of `CC1=CC[C@@H](C(C)(C)O)CC1` [α-Terpineol], at BtabCSP1 (setting [8]), the IC50 was 14.6 to 95.1 µM. The inhibitory constant (Ki) at BtabCSP1 (setting [5]), at BtabCSP3 (setting [6]) and at BtabCSP2 (setting [7]) was above 100 µM in each case.
`CC(=O)/C=C/C1=C(C)CCCC1(C)C` [β-Ionone] came in with an IC50 against BtabCSP1 of 14.6 to 95.1 µM. In addition, the Ki is 32.1 ± 1.48 µM at BtabCSP1 (BtabCSP1 Ki, competitive binding vs 1-NPN, three replicates ± SD); above 100 µM at BtabCSP3; above 100 µM on BtabCSP2.
With `C=C1CCC2CC1C2(C)C` (stereo not drawn) [β-Pinene], the Ki on BtabCSP1 (setting [5]), on BtabCSP3 (setting [6]) and on BtabCSP2 (setting [7]) was above 100 µM in each case.
As to S(-)-Limonene, the Ki on BtabCSP1 (setting [4]) is 82.2 ± 3.47 µM; at BtabCSP3 (setting [6]) it was above 100 µM; on BtabCSP2 (setting [7]), above 100 µM.
